Reference: ChEMBL document CHEMBL2380242, “Discovery of novel orally bioavailable GPR40 agonists” (Bioorg Med Chem Lett, 2013)
Calls of active or inactive are those of the source. The rule behind the calls is not given here.

Experiments:
[1] = tested on: Rhesus monkey; experiment: Antidiabetic activity in obese type 2 diabetic rhesus monkey model assessed as inhibition of blood glucose excursion at 20 mg/kg, po administered 1 to 2 hrs prior to dextrose challenge measured for 120 mins by IVGTT relative to control; assay type: functional; conditions: Macaca mulatta
[2] = target: Free fatty acid receptor 1 (Rattus norvegicus, UniProt Q8K3T4); experiment: Agonist activity at GPR40 in rat INS-1 cells assessed as glucose-stimulated insulin secretion; assay type: cell-based, INS1
Free fatty acid receptor 1 (Rattus norvegicus, UniProt Q8K3T4), sequence (Q8K3T4 whole entry): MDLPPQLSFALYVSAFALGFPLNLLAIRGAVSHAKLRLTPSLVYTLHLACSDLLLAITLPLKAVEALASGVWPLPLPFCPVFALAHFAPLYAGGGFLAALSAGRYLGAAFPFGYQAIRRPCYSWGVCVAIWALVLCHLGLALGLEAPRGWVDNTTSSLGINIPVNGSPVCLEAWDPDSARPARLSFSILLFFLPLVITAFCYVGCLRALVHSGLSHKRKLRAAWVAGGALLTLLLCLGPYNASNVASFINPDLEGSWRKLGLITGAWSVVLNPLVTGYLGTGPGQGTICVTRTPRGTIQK

[3] = tested on: Rhesus monkey; experiment: Antidiabetic activity in obese type 2 diabetic rhesus monkey model assessed as inhibition of blood glucose excursion at 20 mg/kg, po administered 1 to 2 hrs prior to dextrose challenge measured for 60 mins by IVGTT relative to control; assay type: functional; conditions: Macaca mulatta
[4] = tested on: Mus musculus; experiment: Antidiabetic activity in high fat feasted ICR mouse assessed as reduction of blood glucose excursion at 20 mg/kg, po administered 15 mins prior to dextrose challenge measured for 120 mins by OGTT; assay type: functional, organism-based; set-up: dose 20 mg/kg
[5] = Half life in rat at 5 mg/kg, po; assay type: ADME, organism-based; set-up: dose 5 mg/kg, route oral; conditions: in vivo
[6] = tested on: Rattus norvegicus; experiment: Volume of distribution in rat at 5 mg/kg, po; assay type: ADME, organism-based; set-up: dose 5 mg/kg, route oral; conditions: in vivo
[7] = Inhibition of CYP450 (unknown origin); assay type: ADME, Homo sapiens
[8] = Half life in beagle dog at 1 mg/kg, po; assay type: ADME, organism-based, Canis lupus familiaris; set-up: dose 1 mg/kg, route oral; conditions: in vivo
[9] = target: T1, Free fatty acid receptor 3 (Homo sapiens) (UniProt O14843); experiment: Agonist activity at GPR41 (unknown origin) up to 10 uM
T1 sequence (whole entry): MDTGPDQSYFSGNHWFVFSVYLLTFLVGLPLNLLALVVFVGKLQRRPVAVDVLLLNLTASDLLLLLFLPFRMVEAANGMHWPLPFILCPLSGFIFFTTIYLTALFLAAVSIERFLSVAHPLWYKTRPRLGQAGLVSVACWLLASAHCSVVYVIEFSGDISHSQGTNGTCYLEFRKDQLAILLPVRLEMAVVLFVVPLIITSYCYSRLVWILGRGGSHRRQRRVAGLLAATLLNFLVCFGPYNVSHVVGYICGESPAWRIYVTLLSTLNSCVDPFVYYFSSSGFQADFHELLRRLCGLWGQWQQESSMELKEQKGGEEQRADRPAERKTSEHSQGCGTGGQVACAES

[10] = target: T2, Free fatty acid receptor 1 (Homo sapiens, UniProt O14842); experiment: Agonist activity at human GPR40 transfected in CHO cells by calcium flux assay relative to TAK-875; assay type: functional, cell-based
T2 sequence (O14842 whole entry): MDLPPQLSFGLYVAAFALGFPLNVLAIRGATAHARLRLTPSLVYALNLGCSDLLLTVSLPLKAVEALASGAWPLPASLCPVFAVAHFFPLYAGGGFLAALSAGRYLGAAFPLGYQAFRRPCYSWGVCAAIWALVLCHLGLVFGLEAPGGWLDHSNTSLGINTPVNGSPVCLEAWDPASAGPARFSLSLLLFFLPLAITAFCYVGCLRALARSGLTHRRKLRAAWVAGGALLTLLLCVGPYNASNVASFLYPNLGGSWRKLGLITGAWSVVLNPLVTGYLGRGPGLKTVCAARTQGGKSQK

[11] = target: T3, Free fatty acid receptor 2 (Homo sapiens) (UniProt O15552); experiment: Agonist activity at GPR43 (unknown origin) up to 10 uM
T3 sequence (whole entry): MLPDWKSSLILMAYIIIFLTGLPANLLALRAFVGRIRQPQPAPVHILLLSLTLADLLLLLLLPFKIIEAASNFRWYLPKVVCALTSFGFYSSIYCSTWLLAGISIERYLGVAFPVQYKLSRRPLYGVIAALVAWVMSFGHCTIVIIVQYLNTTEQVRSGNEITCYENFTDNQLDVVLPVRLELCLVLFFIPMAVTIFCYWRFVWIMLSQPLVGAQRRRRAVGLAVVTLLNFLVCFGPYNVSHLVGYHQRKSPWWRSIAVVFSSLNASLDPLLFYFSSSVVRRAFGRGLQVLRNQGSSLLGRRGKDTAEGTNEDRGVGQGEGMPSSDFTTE

[12] = tested on: Cynomolgus monkey; experiment: Volume of distribution in cynomolgus monkey at 6 mg/kg, po; assay type: ADME, organism-based, Macaca fascicularis; set-up: dose 6 mg/kg, route oral; conditions: in vivo
[13] = tested on: Mus musculus; experiment: Antidiabetic activity in high fat feasted ICR mouse assessed as inhibition of blood glucose excursion at 50 mg/kg, po administered 15 mins prior to dextrose challenge measured for 120 mins by OGTT relative to control; assay type: functional
[14] = Half life in cynomolgus monkey at 6 mg/kg, po; assay type: ADME, organism-based, Macaca fascicularis; set-up: dose 6 mg/kg, route oral; conditions: in vivo
[15] = AUC in beagle dog at 1 mg/kg, po; assay type: ADME, organism-based, Canis lupus familiaris; set-up: dose 1 mg/kg, route oral; conditions: plasma
[16] = Lipophilicity, log D of the compound; assay type: physicochemical; conditions: octanol/water
[17] = Plasma clearance in beagle dog at 1 mg/kg, po; assay type: ADME, organism-based, Canis lupus familiaris; set-up: dose 1 mg/kg, route oral
[18] = target: T4, Free fatty acid receptor 4 (Homo sapiens) (UniProt Q5NUL3); experiment: Agonist activity at GPR120 (unknown origin) up to 10 uM
T4 sequence (whole entry): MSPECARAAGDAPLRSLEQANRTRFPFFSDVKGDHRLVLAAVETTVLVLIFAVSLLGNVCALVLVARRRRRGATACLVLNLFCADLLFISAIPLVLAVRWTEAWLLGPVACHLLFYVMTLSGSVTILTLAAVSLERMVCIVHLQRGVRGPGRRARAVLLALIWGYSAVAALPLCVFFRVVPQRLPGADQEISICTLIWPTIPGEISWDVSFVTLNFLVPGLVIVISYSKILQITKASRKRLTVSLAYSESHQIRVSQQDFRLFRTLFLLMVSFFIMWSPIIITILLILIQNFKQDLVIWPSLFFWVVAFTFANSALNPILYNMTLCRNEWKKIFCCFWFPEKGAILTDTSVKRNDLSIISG

[19] = tested on: Rhesus monkey; experiment: Antidiabetic activity in obese type 2 diabetic rhesus monkey model assessed as inhibition of blood glucose excursion at 6 mg/kg, po administered 1 to 2 hrs prior to dextrose challenge measured for 60 mins by IVGTT relative to control; assay type: functional; conditions: Macaca mulatta
[20] = target: T2, Free fatty acid receptor 1; experiment: Agonist activity at human GPR40 transfected in CHO cells by calcium flux assay; assay type: functional, cell-based
[21] = Cmax in cynomolgus monkey at 6 mg/kg, po; assay type: ADME, organism-based, Macaca fascicularis; set-up: dose 6 mg/kg, route oral; conditions: in vivo
[22] = Cmax in beagle dog at 1 mg/kg, po; assay type: ADME, organism-based, Canis lupus familiaris; set-up: dose 1 mg/kg, route oral; conditions: in vivo
[23] = AUC in cynomolgus monkey at 6 mg/kg, po; assay type: ADME, organism-based, Macaca fascicularis; set-up: dose 6 mg/kg, route oral; conditions: plasma
[24] = target: Free fatty acid receptor 1 (Rattus norvegicus) (UniProt Q8K3T4); experiment: Agonist activity at GPR40 in rat INS-1 cells assessed as glucose-stimulated insulin secretion relative to TAK-875; assay type: cell-based; conditions: INS1
Free fatty acid receptor 1 (Rattus norvegicus), sequence (Q8K3T4 whole entry): as the sequence (Q8K3T4 whole entry) above

[25] = AUC in rat at 5 mg/kg, po; assay type: ADME, organism-based; set-up: dose 5 mg/kg, route oral; conditions: plasma
[26] = tested on: Rhesus monkey; experiment: Antidiabetic activity in obese type 2 diabetic rhesus monkey model assessed as inhibition of blood glucose excursion at 6 mg/kg, po administered 1 to 2 hrs prior to dextrose challenge measured for 120 mins by IVGTT relative to control; assay type: functional; conditions: Macaca mulatta
[27] = tested on: Canis familiaris; experiment: Volume of distribution in beagle dog at 1 mg/kg, po; assay type: ADME, organism-based, Canis lupus familiaris; set-up: dose 1 mg/kg, route oral; conditions: in vivo
[28] = Cmax in rat at 5 mg/kg, po; assay type: ADME, organism-based; set-up: dose 5 mg/kg, route oral; conditions: in vivo
[29] = Plasma clearance in rat at 5 mg/kg, po; assay type: ADME, organism-based; set-up: dose 5 mg/kg, route oral
[30] = Plasma clearance in cynomolgus monkey at 6 mg/kg, po; assay type: ADME, organism-based, Macaca fascicularis; set-up: dose 6 mg/kg, route oral
[31] = Oral bioavailability in rat at 5 mg/kg; assay type: ADME, organism-based; conditions: in vivo
[32] = tested on: Mus musculus; experiment: Antidiabetic activity in high fat feasted ICR mouse assessed as inhibition of blood glucose excursion administered 15 mins prior to dextrose challenge measured for 120 mins by OGTT relative to control; assay type: functional

Row | SMILES | inhibition in vivo at 20 mg/kg [1] | EC50 [2] | inhibition in vivo at 20 mg/kg [3] | half-life [5] | Vd [6] | half-life [8] | Emax [10] | Vd [12] | inhibition in vivo at 50 mg/kg [13] | half-life [14] | AUC [15] | EC50 [20] | Cmax [21] | Cmax [22] | AUC [23] | Emax [24] | AUC [25] | Cmax [28] | CL/F [29] | CL/F [30] | also measured
1 | Cc1cc(OCCCS(C)(=O)=O)cc(C)c1-c1cccc(COc2ccc3c(c2)OC[C@H]3CC(=O)O)c1 | 15% | 93 nM | 14.7% | – | – | – | – | – | – | – | – | – | – | – | – | – | – | – | – | – | Activity [4]: Active
2 | O=C(O)C[C@@H]1COc2cc3c(cc21)OC[C@@H](c1cccc(Cl)c1)O3 | 13.2% | – | 16.4% | 27.5 h | 0.21 L/kg | 21.1 h | 87% | 0.85 L/kg | 11% | 12.9 h | 35.6 µg·h/mL | 34.2 nM | 19700 ng/mL | 2670 ng/mL | 126 µg·h/mL | 36.8% | 666 µg·h/mL | 22000 ng/mL | 0.0833 mL/min/kg | 0.833 mL/min/kg | IC50 [7]: > 50000 nM; Activity [9]: inactive; Activity [11]: inactive; logD [16]: < 3; CL/F [17]: 0.333 mL/min/kg; Activity [18]: inactive; inhibition in vivo at 6 mg/kg [19]: 7.71%; inhibition in vivo at 6 mg/kg [26]: 10.7%; Vd [27]: 0.71 L/kg
3 | O=C(O)C[C@@H]1COc2cc3c(cc21)OC[C@@H](c1cccc(C(F)(F)F)c1)O3 | – | – | – | 16.1 h | 0.23 L/kg | 19.1 h | 99.5% | 2.38 L/kg | 13.3% | 16.4 h | 47.4 µg·h/mL | 11.3 nM | 7700 ng/mL | 2580 ng/mL | 54.7 µg·h/mL | 43.6% | 427 µg·h/mL | 19400 ng/mL | 0.167 mL/min/kg | 1.67 mL/min/kg | bioavailability [31]: 100%
4 | O=C(O)C[C@@H]1COc2cc3c(cc21)OC[C@@H](c1cccc(Br)c1)O3 | – | 77 nM | – | 26.8 h | 0.25 L/kg | 26.4 h | 120% | 1.02 L/kg | 4.9% | 18 h | 30.6 µg·h/mL | 13.5 nM | 5360 ng/mL | 2270 ng/mL | 136 µg·h/mL | 40% | 530 µg·h/mL | 17800 ng/mL | 0.117 mL/min/kg | 0.667 mL/min/kg | IC50 [7]: > 50000 nM; Activity [9]: inactive; Activity [11]: inactive; logD [16]: < 3; CL/F [17]: 0.5 mL/min/kg; Activity [18]: inactive; inhibition in vivo at 6 mg/kg [19]: 32.1%; inhibition in vivo at 6 mg/kg [26]: 24.4%; Vd [27]: 0.93 L/kg
5 | Cc1ccccc1-c1cccc([C@H]2COc3cc4c(cc3O2)OC[C@H]4CC(=O)O)c1 | – | – | – | – | – | – | 91% | – | – | – | – | 19.1 nM | – | – | – | – | – | – | – | – | inhibition (INH) [32]: 9.7%
